“Also recorded” adds a separate entry of the source.

Common to all, as to type: in vivo, human
The subject of assay [1] is subjects with ocular surface disease associated with Primary Sjögren's Syndrome. The assay can be described thus: Burning/Stinging individual symptom assessment (VAS) in Lacripep clinical study. On the procedure:
(§1) The primary objective of this study was to evaluate the safety and tolerability of 22 and 44 μM Lacripep™ ophthalmic solution versus placebo (vehicle) administered three times daily for 28 days in subjects with a history of ocular surface disease associated with Primary Sjögren's Syndrome, including subjects with mild dry eye symptoms. Additionally, many dry eye signs and symptoms were assessed.
(§2) This was a multi-center, randomized, placebo-controlled, double-masked, parallel-group study conducted at 35 sites in the United States, and approved by local institutional review boards. Written informed consent was obtained from all subjects after review of risks and benefits of participation. The study was conducted in accordance with the Health Insurance Portability and Accountability Act of 1996 and Declaration of Helsinki of 1996 and registered at ClinicalTrials.gov: NCT 03226444.
(§3) The study duration was 56 days, including a 14-day run-in period, a 28-day active treatment period, and 14-day follow-up period (wash-out) (see FIG. 2). Measurements were collected at five scheduled visits.
(§4) Randomization and Treatment: At Visit 2 (Baseline/Randomization) eligibility was confirmed. All criteria were met in the same study eye. […] Eligible subjects were randomly assigned to one of the three treatment groups: one of two Lacripep™ ophthalmic solution strengths (22 μM or 44 μM) or placebo (vehicle).
One drop of investigational product was administered three times a day (TID) to both eyes for 28 days. […]
Tear film break-up time (TBUT) was measured in seconds. The Symptom Assessment in Dry Eye (SANDE) inventory version 1 and version 2 measured patient-rated symptom severity and frequency using a visual-analogue scale. The Individual Symptom Assessments (instantaneous and Reflective) measured patient-reported symptoms on a visual-analogue scale (VAS). […]
Post-Hoc Efficacy Analysis: Post-hoc, all primary and secondary endpoints were assessed for treatment effect controlling for baseline Eye Dryness Score (EDS) using analysis of covariance (ANCOVA). […] Subgroups were then evaluated according to baseline EDS.

The test system is the same in assay [2]. Briefly: Corneal fluorescein staining (CFS, NEI scale) in Lacripep clinical study NCT 03226444. Here is the method: as §1, §2, §3
Screening and Eligibility: At Visit 1 (Screening) informed consent was obtained from subjects and eligibility was determined requiring documentation of Primary Sjögren's Syndrome per the American-European Consensus Group Sjögren's Syndrome Criteria. Subjects were at least 18 years of age with a history of dry eye-related symptoms and use of eye-wetting agents within the past 120 days. Major inclusion criteria at the screening and subsequent baseline visits included: • 1. CFS total score >4 and <15 in the National Eye Institute Industry Workshop (NEI) scale (Protocol Appendix 6) • 2. Symptom Severity score of ≥40 using the Symptom Assessment in Dry Eye (SANDE) questionnaire • 3. Anesthetized Schirmer test score […] • 4. LGCS total score ≥5 using the NEI scale
as §4
(§5) One drop of investigational product was administered three times a day (TID) to both eyes for 28 days. At Visit 3 (Week 2) and Visit 4 (Week 4) efficacy and safety evaluations were performed. Subjects who discontinued before Visit 4 underwent Visit 4 evaluations (Early Termination).
(§6) Efficacy: All efficacy assessments were performed in both eyes, and by the same person if possible. […] Lissamine green conjunctival staining (LGCS) was assessed in 6 regions on a 0 to 3 scale (total 0 to 18). All sites were trained and tested on NEI scoring methodology.
The primary efficacy measurement was mean change from Baseline to Day 28 in CFS total score (NEI/Industry Workshop 0-15 scale, 0-3 scale in each of 5 regions) in the study eye. The key secondary efficacy measurement was mean change from Baseline to Day 28 in Eye Dryness Score (VAS from 0 to 100 mm) from Individual Symptom Assessments.
The change from Baseline in CFS to Day 14 and to post treatment follow-up (Day 42) were additional secondary measurements. Other secondary measurements included changes from baseline to Day 14 and Day 28 in the LGCS scores, TFBUT, and Schirmer tests. Secondary symptom measurements included changes from baseline to Day 14 and Day 28 in the SANDE and each of the Individual Symptom Assessments. […]

Assay [3] has the same test system. Briefly: Lissamine green conjunctival staining (LGCS, NEI scale) in Lacripep clinical study. Here is the method: as §1, §2, §3, §4, §5, §6
The change from Baseline in CFS to Day 14 and to post treatment follow-up (Day 42) were additional secondary measurements. Other secondary measurements included changes from baseline to Day 14 and Day 28 in the LGCS scores, TFBUT, and Schirmer tests. Secondary symptom measurements included changes from baseline to Day 14 and Day 28 in the SANDE and each of the Individual Symptom Assessments.
Post-Hoc Efficacy Analysis: Post-hoc, all primary and secondary endpoints were assessed for treatment effect controlling for baseline Eye Dryness Score (EDS) using analysis of covariance (ANCOVA). All ANCOVA models were fit using the Proc Mixed procedure in SAS. Post-hoc analysis was also performed using all observed data in the ITT set, without imputation. […] Subgroups were then evaluated according to baseline EDS.

[4] abbreviates: 22 μM TID, day 14, prespecified analysis.

Turning to “Ac-Lys-Gln-Phe-Ile-Glu-Asn-Gly-Ser-Glu-Phe-Ala-Gln-Lys-Leu-Leu-Lys-Lys-Phe-Ser-NH2 (Ac-KQFIENGSEFAQKLLKKFS-NH2) [Lacripep™, synthetic 19 amino acid peptide fragment of lacritin]”, the “Improvement from baseline in Burning/Stinging symptom (reflective VAS rating) vs. placebo” value in assay [1] (setting [4]) is listed as “statistically significant”. Besides, the “Burning/Stinging symptom vs placebo at later time points” value in assay [1] (both dose groups (22 and 44 μM), day 28 and day 42, not statistically significant) is given as “trend better than the placebo group”. The “Burning/Stinging symptom treatment effect” value in assay [1] (both dose groups, day 28, subset baseline EDS of ≥60) is given as “positive but not significant effect”. In addition, in assay [2] (22 μM TID, day 14, baseline EDS set, p=0.03), the “Improvement in total CFS score vs placebo” value is listed as 1.2. Moreover, in assay [2] (setting [4]), the “Improvement from baseline in inferior region CFS score vs. placebo” value is “statistically significant”. Moreover, in assay [2] (22 μM, day 42 post-treatment follow-up, subset baseline EDS), the “Treatment effect on inferior CFS after washout” value was “falling off after washout”. Moreover, the “Difference in inferior region CFS score vs. placebo” value in assay [2] (44 μM TID (higher dose group), subset baseline EDS≥60) is “Positive (though not statistically significant) differences; also recorded: positive but not significant effect”. The “Primary endpoint of CFS score at day 28” value in assay [2] (day 28, change from baseline in CFS total score vs placebo) was “not met”. Besides, in assay [3] (22 μM TID, day 14, subset baseline EDS≥60, p=0.017), the “Improvement in change from baseline LGCS total score vs. placebo” value is recorded as 1.5. In addition, in assay [3] (22 μM TID, day 14, subset baseline EDS≥60, p=0.038), the “Improvement in LGCS segment 5 vs. placebo” value came out at 0.4. Moreover, the “Improvement in LGCS segment 1 vs. placebo” value in assay [3] (22 μM TID, day 14, subset baseline EDS≥60, p=0.049) is 0.4. In addition, the “Improvement in LGCS” value in assay [3] (prespecified secondary endpoint analysis) was “not statistically significant”.

The values are drawn from US20260021159A1, “STABLE PEPTIDE COMPOSITIONS AND METHODS OF USE THEREOF FOR TREATMENT OF MODERATE/SEVERE DRY EYE-RELATED OCULAR SYMPTOMS” (TearSolutions, Inc., priority 2022, published 2026).
